Laboratory results published in the supplement of paper PMC10307832.

The cell lines below were run with CCN1CCN(c2ccc(Nc3cc(N(C)C(=O)Nc4c(Cl)c(OC)cc(OC)c4Cl)ncn3)cc2)CC1 [BGJ398] + Nc1nc2[nH]cc(CCc3ccc(C(=O)N[C@@H](CCC(=O)O)C(=O)O)cc3)c2c(=O)[nH]1 [Pemetrexed] (partner 0.2 µM) (assay: relative viability (nuclei count vs DMSO), 5 days (fraction); higher = more cells survive). Conditions: first compound 0.01 µM.
Outline: (§1)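 Lung cancer cell lines in 1536-well plates were dosed by pin tool the day after seeding, either with one drug alone or with a fixed anchor-drug dose plus five library-drug doses (not always all listed) in √10 steps. After 5 days, cells were fixed and their nuclei stained in one step (final 0.05% Triton X-100, 1% formaldehyde, 1 ug/ml Hoechst), then counted on 4× images. Relative viability is the nuclei count in treated wells divided by that in vehicle wells. Values are medians of duplicate plates.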
COR-L23 showed a relative viability of 0.189.
COR-L 105 gave a relative viability of 1.36.
LOU-NH91 was tested, and the relative viability was 0.375.
ChaGo-K-1 was tested, and the relative viability was 0.261.
NCI-H2170 showed a relative viability of 0.273.
NCI-H2405 showed a relative viability of 1.05.
HOP-62 was tested, and the relative viability was 0.375.
Work on LU99A yielded a relative viability of 0.176.
For BEN, the relative viability was 0.703.
For HARA, the relative viability was 0.237.
Work on HCC-78 yielded a relative viability of 1.02.
NCI-H322M gave a relative viability of 0.662.
Cell Line LCLC-97TM1 has a relative viability of 0.172.
For NCI-H2009, the relative viability was 1.02.
Work on A-427 yielded a relative viability of 1.03.

Same assay, conditions: first compound 0.03162 µM
COR-L23 was tested, and the relative viability was 0.191.
COR-L 105 was tested, and the relative viability was 1.12.
LOU-NH91 showed a relative viability of 0.407.
Work on ChaGo-K-1 yielded a relative viability of 0.249.
NCI-H2170 was tested, and the relative viability was 0.254.
Cell Line NCI-H2405 has a relative viability of 1.15.
Cell Line HOP-62 has a relative viability of 0.382.
LU99A was tested, and the relative viability was 0.182.
BEN gave a relative viability of 0.812.
HARA was tested, and the relative viability was 0.22.
HCC-78 showed a relative viability of 0.885.
With NCI-H322M the relative viability was 0.635.
For LCLC-97TM1, the relative viability was 0.236.
In the case of NCI-H2009, the relative viability is reported as 1.04.
A-427 was tested, and the relative viability was 1.08.

Same assay, conditions: first compound 0.1 µM
For COR-L23, the relative viability was 0.192.
COR-L 105 was tested, and the relative viability was 0.879.
With LOU-NH91 the relative viability was 0.408.
ChaGo-K-1 was tested, and the relative viability was 0.242.
NCI-H2170 showed a relative viability of 0.283.
For NCI-H2405, the relative viability was 1.09.
For HOP-62, the relative viability was 0.335.
LU99A showed a relative viability of 0.169.
For BEN, the relative viability was 0.751.
HARA gave a relative viability of 0.215.
Work on HCC-78 yielded a relative viability of 0.88.
NCI-H322M gave a relative viability of 0.637.
LCLC-97TM1 was tested, and the relative viability was 0.161.
NCI-H2009 was tested, and the relative viability was 1.04.
With A-427 the relative viability was 0.958.

Same assay, conditions: first compound 0.3162 µM
COR-L23 was tested, and the relative viability was 0.208.
COR-L 105 showed a relative viability of 1.12.
Cell Line LOU-NH91 has a relative viability of 0.376.
In the case of ChaGo-K-1, the relative viability is reported as 0.269.
For NCI-H2170, the relative viability was 0.276.
For NCI-H2405, the relative viability was 1.3.
HOP-62 showed a relative viability of 0.36.
Work on LU99A yielded a relative viability of 0.224.
Cell Line BEN has a relative viability of 0.749.
HARA was tested, and the relative viability was 0.273.
HCC-78 showed a relative viability of 0.91.
In the case of NCI-H322M, the relative viability is reported as 0.603.
LCLC-97TM1 showed a relative viability of 0.174.
NCI-H2009 showed a relative viability of 1.11.
A-427 gave a relative viability of 0.924.

Same assay, conditions: first compound 1 µM
COR-L23 gave a relative viability of 0.193.
In the case of COR-L 105, the relative viability is reported as 0.936.
Cell Line LOU-NH91 has a relative viability of 0.381.
ChaGo-K-1 was tested, and the relative viability was 0.281.
NCI-H2170 showed a relative viability of 0.247.
Cell Line NCI-H2405 has a relative viability of 1.02.
Work on HOP-62 yielded a relative viability of 0.379.
In the case of LU99A, the relative viability is reported as 0.204.
BEN showed a relative viability of 0.606.
HARA gave a relative viability of 0.248.
HCC-78 was tested, and the relative viability was 0.896.
With NCI-H322M the relative viability was 0.631.
LCLC-97TM1 showed a relative viability of 0.162.
Cell Line NCI-H2009 has a relative viability of 1.09.
With A-427 the relative viability was 0.918.

Each cell line was assayed with C1=CC2=NC=CN=C2C=C1/C=C/3\C(=O)NC(=O)S3 + CC1(C)CCC(c2ccc(Cl)cc2)=C(CN2CCN(c3ccc(C(=O)NS(=O)(=O)c4ccc(N[C@H](CCN5CCOCC5)CSc5ccccc5)c(S(=O)(=O)C(F)(F)F)c4)cc3)CC2)C1 [Navitoclax] (partner 0.5 µM) in the same assay as above. Conditions: first compound 0.02 µM.
Outline: as §1
In the case of COR-L23, the relative viability is reported as 0.919.
Cell Line COR-L 105 has a relative viability of 0.697.
LOU-NH91 gave a relative viability of 0.686.
Work on ChaGo-K-1 yielded a relative viability of 1.06.
NCI-H2170 showed a relative viability of 0.527.
NCI-H2405 showed a relative viability of 0.751.
For HOP-62, the relative viability was 0.974.
Cell Line LU99A has a relative viability of 0.77.
BEN was tested, and the relative viability was 0.0591.
For HARA, the relative viability was 1.1.
For HCC-78, the relative viability was 0.667.
For NCI-H322M, the relative viability was 1.05.
With LCLC-97TM1 the relative viability was 0.483.
NCI-H2009 was tested, and the relative viability was 1.2.
Cell Line A-427 has a relative viability of 0.935.

Same assay, conditions: first compound 0.06325 µM
COR-L23 showed a relative viability of 1.08.
For COR-L 105, the relative viability was 0.703.
In the case of LOU-NH91, the relative viability is reported as 0.659.
For ChaGo-K-1, the relative viability was 1.67.
With NCI-H2170 the relative viability was 0.521.
NCI-H2405 was tested, and the relative viability was 1.14.
With HOP-62 the relative viability was 1.15.
Cell Line LU99A has a relative viability of 0.993.
Cell Line BEN has a relative viability of 0.0567.
HARA gave a relative viability of 1.11.
With HCC-78 the relative viability was 0.641.
NCI-H322M gave a relative viability of 1.12.
LCLC-97TM1 showed a relative viability of 0.339.
In the case of NCI-H2009, the relative viability is reported as 1.2.
A-427 gave a relative viability of 0.977.

Same assay, conditions: first compound 0.2 µM
COR-L23 was tested, and the relative viability was 1.03.
COR-L 105 gave a relative viability of 0.821.
For LOU-NH91, the relative viability was 0.685.
ChaGo-K-1 showed a relative viability of 1.28.
In the case of NCI-H2170, the relative viability is reported as 0.607.
For NCI-H2405, the relative viability was 0.938.
In the case of HOP-62, the relative viability is reported as 1.13.
With LU99A the relative viability was 0.746.
BEN showed a relative viability of 0.065.
Cell Line HARA has a relative viability of 1.17.
For HCC-78, the relative viability was 0.741.
NCI-H322M showed a relative viability of 1.35.
LCLC-97TM1 showed a relative viability of 0.483.
NCI-H2009 showed a relative viability of 1.15.
For A-427, the relative viability was 0.993.

Same assay, conditions: first compound 0.6325 µM
With COR-L23 the relative viability was 0.946.
With COR-L 105 the relative viability was 0.678.
With LOU-NH91 the relative viability was 0.641.
For ChaGo-K-1, the relative viability was 0.924.
In the case of NCI-H2170, the relative viability is reported as 0.563.
In the case of NCI-H2405, the relative viability is reported as 0.947.
HOP-62 was tested, and the relative viability was 1.06.
LU99A was tested, and the relative viability was 0.876.
With BEN the relative viability was 0.0608.
HARA was tested, and the relative viability was 1.16.
HCC-78 showed a relative viability of 0.733.
NCI-H322M was tested, and the relative viability was 1.11.
For LCLC-97TM1, the relative viability was 0.425.
NCI-H2009 showed a relative viability of 1.21.
With A-427 the relative viability was 0.934.

Same assay, conditions: first compound 2 µM
For COR-L23, the relative viability was 0.962.
With COR-L 105 the relative viability was 0.999.
Work on LOU-NH91 yielded a relative viability of 0.657.
ChaGo-K-1 gave a relative viability of 0.726.
In the case of NCI-H2170, the relative viability is reported as 0.501.
Work on NCI-H2405 yielded a relative viability of 0.755.
HOP-62 was tested, and the relative viability was 0.931.
Work on LU99A yielded a relative viability of 0.64.
Cell Line BEN has a relative viability of 0.0653.
HARA showed a relative viability of 1.09.
HCC-78 gave a relative viability of 0.767.
NCI-H322M showed a relative viability of 1.16.
LCLC-97TM1 was tested, and the relative viability was 0.379.
In the case of NCI-H2009, the relative viability is reported as 1.23.
Work on A-427 yielded a relative viability of 0.877.
